# Reference: patent US4051253A, “Microbicidal nitrofuryl compounds” (Byk Gulden Lomberg Chemische Fabrik GmbH, priority 1974, dated 1977)
# Read-outs that look alike come from different tables or passages of the source.
# Columns and labels:
# [1] = system: streptococci group A 807; assay: microbe, parasite or virus in culture; assay type: cell-based; conditions: for MIC: read-out: Minimum inhibiting concentration (MHK), series dilution test
# [2] = system: C. Paracrusei 45; assay: microbe, parasite or virus in culture; assay type: cell-based; conditions: for MBC: read-out: Concentration from which subcultures no longer started; for MIC: read-out: Minimum inhibiting concentration (MHK), series dilution test
# [3] = system: C. Albicans 49; assay: microbe, parasite or virus in culture; assay type: cell-based; conditions: Candida albicans; for MIC: read-out: Minimum inhibiting concentration (MHK), series dilution test
# [4] = in vivo; conditions: mouse
# [5] = system: enterococci; assay: microbe, parasite or virus in culture; assay type: cell-based; conditions: for MIC: read-out: Minimum inhibiting concentration (MHK), series dilution test
# [6] = system: Staph. aur. PCI 1203; assay: microbe, parasite or virus in culture; assay type: cell-based; conditions: for MBC: read-out: Concentration from which subcultures no longer started; for MIC: read-out: Minimum inhibiting concentration (MHK), series dilution test
# [7] = system: Serratia marcescens strain HY/a 21
# [8] = system: S. typhimurium G 46
# [9] = system: Trichomonas foetus; assay: Infection tests with Trichomonas foetus in mice; assay type: in vivo; conditions: for % of Animals Dying After Infection (Mean Value): stomach tube, 3 successive days, NMRI mice; for animals survived / survival rate: dose of 6.25 mg/kg, mice infected with T. foetus; for activity against T. foetus compared with metronidazol (in words): infected mice
# [10] = system: E. coli 6106; assay: microbe, parasite or virus in culture; assay type: cell-based; conditions: for MIC: read-out: Minimum inhibiting concentration (MHK), series dilution test
# [11] = system: Staph. aur. SG 511; assay: microbe, parasite or virus in culture; assay type: cell-based; conditions: for MIC: read-out: Minimum inhibiting concentration (MHK), series dilution test
# [12] = system: Ps. aeruginosa 2; assay: microbe, parasite or virus in culture; assay type: cell-based; conditions: for MIC: read-out: Minimum inhibiting concentration (MHK), series dilution test
# [13] = system: streptoc. group B 779; assay: microbe, parasite or virus in culture; assay type: cell-based; conditions: for MBC: read-out: Concentration from which subcultures no longer started; for MIC: read-out: Minimum inhibiting concentration (MHK), series dilution test
# [14] = system: 9 bacteria and 2 yeast strains; assay: In vitro tests with 9 bacteria and 2 yeast strains (summary); assay type: cell-based; conditions: Table 2
# [15] = system: streptococci group C 805; assay: microbe, parasite or virus in culture; assay type: cell-based; conditions: for MBC: read-out: Concentration from which subcultures no longer started; for MIC: read-out: Minimum inhibiting concentration (MHK), series dilution test
# [16] = system: Klebs. pneum. PCI 602; assay: microbe, parasite or virus in culture; assay type: cell-based; conditions: for MBC: read-out: Concentration from which subcultures no longer started; for MIC: read-out: Minimum inhibiting concentration (MHK), series dilution test
# [17] = 24 h, read-out: Concentration from which subcultures no longer started, subcultures applied after 24 h, read after 24 h
# [18] = 48 h, read-out: Concentration from which subcultures no longer started, subcultures applied after 48 h, read after 48 h
# [19] = read-out: Concentration from which subcultures no longer started, subcultures applied after 24 h, read after 48 h
# [20] = read-out: Concentration from which subcultures no longer started, subcultures applied after 48 h, read after 24 h
# [21] = subcultures applied after 48 h, read after 24 h
smiles,measurement,setting,value
"Cc1ccccc1C(=O)NN=CC=Cc1ccc([N+](=O)[O-])o1 [A, 5-nitro-2-[(o-toluoylhydrazono)propen-1-yl]furan]",MBC,[1]; [17],125 µg/mL
same,MIC,[1]; 24 h,31.2 µg/mL
same,MBC,[1]; [18],125 µg/mL
same,MIC,[1]; 48 h,31.2 µg/mL
same,MBC,[1]; [19],125 µg/mL
same,MBC,[1]; [20],62.5 µg/mL
same,MBC,[2]; 24 h,125 µg/mL
same,MIC,[2]; 24 h,62.5 µg/mL
same,MBC,[2]; 48 h,125 µg/mL
same,MIC,[2]; 48 h,125 µg/mL
same,MBC,[2],125 µg/mL
same,Concentration from which subcultures no longer started,[2]; [21],125 µg/mL
same,MBC,[3]; [17],62.5 µg/mL
same,MIC,[3]; 24 h,62.5 µg/mL
same,MBC,[3]; [18],125 µg/mL
same,MIC,[3]; 48 h,62.5 µg/mL
same,MBC,[3]; [19],62.5 µg/mL
same,MBC,[3]; [20],125 µg/mL
same,LD50,[4],> 2000 mg/kg
same,MBC,[5]; [17],250 µg/mL
same,MIC,[5]; 24 h,62.5 µg/mL
same,MBC,[5]; [18],500 µg/mL
same,MIC,[5]; 48 h,250 µg/mL
same,MBC,[5]; [19],250 µg/mL
same,MBC,[5]; [20],500 µg/mL
same,MBC,[6]; 24 h,31.2 µg/mL
same,MIC,[6]; 24 h,15.6 µg/mL
same,MBC,[6]; 48 h,31.2 µg/mL
same,MIC,[6]; 48 h,31.2 µg/mL
same,MBC,[6],31.2 µg/mL
same,Concentration from which subcultures no longer started,[6]; [21],31.25 µg/mL
same,Mutation frequency,[7],0
same,"mutagenicity, spot test (in words)",[7]; Table 3a,no mutants induced by A are observed
same,"Mutants/ml, Test",[8]; 200 mg/kg per os,0 Mutants/ml
same,"Mutants/ml, Test",[8]; 400 mg/kg per os,0 Mutants/ml
same,"mutagenicity, host mediated assay (in words)",[8]; Table 3b,no mutants induced by A are observed
same,Mutation frequency in test animals,[8]; in vivo,0
same,% of Animals Dying After Infection (Mean Value),[9]; 3.12 mg/kg,91.66%
same,% of Animals Dying After Infection (Mean Value),[9]; 6.25 mg/kg,36.33%
same,% of Animals Dying After Infection (Mean Value),[9]; 12.5 mg/kg,3.33%
same,animals survived / survival rate,[9],63.3%
same,activity against T. foetus compared with metronidazol (in words),[9],substantially better activity in mice infected with T. foetus
same,MBC,"[10]; Escherichia coli, 6106, 24 h, read-out: Concentration from which subcultures no longer started",62.5 µg/mL
same,MIC,"[10]; Escherichia coli, 6106, 24 h",31.2 µg/mL
same,MBC,"[10]; Escherichia coli, 6106, 48 h, read-out: Concentration from which subcultures no longer started",62.5 µg/mL
same,MIC,"[10]; Escherichia coli, 6106, 48 h",62.5 µg/mL
same,MBC,"[10]; Escherichia coli, 6106, read-out: Concentration from which subcultures no longer started",62.5 µg/mL
same,Concentration from which subcultures no longer started,[10]; [21],62.5 µg/mL
same,MBC,[11]; [17],125 µg/mL
same,MIC,[11]; 24 h,31.2 µg/mL
same,MBC,[11]; [18],31.2 µg/mL
same,MIC,[11]; 48 h,31.2 µg/mL
same,MBC,[11]; [19],125 µg/mL
same,MBC,[11]; [20],31.2 µg/mL
same,MBC,"[12]; Pseudomonas aeruginosa, 2, 24 h, read-out: Concentration from which subcultures no longer started",250 µg/mL
same,MIC,"[12]; Pseudomonas aeruginosa, 2, 24 h",250 µg/mL
same,MBC,"[12]; Pseudomonas aeruginosa, 2, 48 h, read-out: Concentration from which subcultures no longer started",250 µg/mL
same,MIC,"[12]; Pseudomonas aeruginosa, 2, 48 h",250 µg/mL
same,MBC,"[12]; Pseudomonas aeruginosa, 2, read-out: Concentration from which subcultures no longer started",250 µg/mL
same,Concentration from which subcultures no longer started,[12]; [21],250 µg/mL
same,MBC,[13]; 24 h,500 µg/mL
same,MIC,[13]; 24 h,250 µg/mL
same,MBC,[13]; 48 h,500 µg/mL
same,MIC,[13]; 48 h,500 µg/mL
same,MBC,[13],500 µg/mL
same,Concentration from which subcultures no longer started,[13]; [21],500 µg/mL
same,in vitro antibacterial/antiyeast effect compared with metronidazol (in words),[14],substantially more favorable picture
same,MBC,[15]; 24 h,500 µg/mL
same,MIC,[15]; 24 h,250 µg/mL
same,MBC,[15]; 48 h,500 µg/mL
same,MIC,[15]; 48 h,250 µg/mL
same,MBC,[15],500 µg/mL
same,Concentration from which subcultures no longer started,[15]; [21],500 µg/mL
same,MBC,[16]; 24 h,31.2 µg/mL
same,MIC,[16]; 24 h,7.8 µg/mL
same,MBC,[16]; 48 h,31.2 µg/mL
same,MIC,[16]; 48 h,7.8 µg/mL
same,MBC,[16],31.2 µg/mL
same,Concentration from which subcultures no longer started,[16]; [21],31.25 µg/mL
"CCc1ccccc1C(=O)NN=CC=Cc1ccc([N+](=O)[O-])o1 [B, 2-[(o-ethylbenzoylhydrazono)propen-1-yl]-5-nitrofuran]",LD50,[4],> 2000 mg/kg
same,% of Animals Dying After Infection (Mean Value),[9]; 1.56 mg/kg,86%
same,% of Animals Dying After Infection (Mean Value),[9]; 3.12 mg/kg,62%
same,% of Animals Dying After Infection (Mean Value),[9]; 6.25 mg/kg,46%
same,% of Animals Dying After Infection (Mean Value),[9]; 12 mg/kg,6%
same,% of Animals Dying After Infection (Mean Value),[9]; 25 mg/kg,0%
same,animals survived / survival rate,[9],54%
same,activity against T. foetus compared with metronidazol (in words),[9],substantially better activity in mice infected with T. foetus
